Source: ChEMBL document CHEMBL1138858, “Small-molecule targeting of heat shock protein 90 chaperone function: rational identification of a new anticancer lead” (J Med Chem, 2006)
Calls of active or inactive are those of the source. The rule behind the calls is not given here.

Key:
[1] = Cytotoxicity against JR8 cells after 72 hrs; format: cell-based; conditions: Homo sapiens, JR8, 72 h
Caspase-9 (Homo sapiens) [2] = biological target: T1, Caspase-9 (Homo sapiens) (UniProt P55211); assay: Activation of caspase 9 in DU145 cells assessed as hydrolysis of LEHD-pNA […] substrate; format: cell-based; conditions: DU-145
T1 sequence (whole entry): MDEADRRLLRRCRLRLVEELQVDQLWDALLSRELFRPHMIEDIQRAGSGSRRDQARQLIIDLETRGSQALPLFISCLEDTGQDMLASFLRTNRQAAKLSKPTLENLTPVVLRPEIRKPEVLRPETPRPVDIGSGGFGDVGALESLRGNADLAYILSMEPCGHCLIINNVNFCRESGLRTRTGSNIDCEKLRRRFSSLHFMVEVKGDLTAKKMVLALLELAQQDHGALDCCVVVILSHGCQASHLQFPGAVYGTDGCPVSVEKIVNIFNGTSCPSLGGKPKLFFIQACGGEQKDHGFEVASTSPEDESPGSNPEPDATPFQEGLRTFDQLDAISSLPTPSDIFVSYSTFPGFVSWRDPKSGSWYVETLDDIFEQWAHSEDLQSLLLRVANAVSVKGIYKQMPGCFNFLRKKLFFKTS

HeLa [3] = assay: Induction of apoptosis in HeLa cells after 72 hrs at 125 uM; format: functional, Homo sapiens
Caspase-9 (Homo sapiens) [4] = biological target: T1, Caspase-9 (Homo sapiens); assay: Activation of caspase 9 in HeLa cells assessed as hydrolysis of LEHD-pNA […] substrate; format: cell-based
[5] = biological target: T2, Heat shock protein HSP90 (Homo sapiens) (UniProt P07900+P08238); assay: Activity at Hsp90 in DU145 cells assessed as reduction in telomerase activity by TRAP assay relative to control; format: cell-based; parameters: scale not given: the % may be the effect or the level left; conditions: DU-145
Caspase-3 (Homo sapiens) [6] = biological target: T3, Caspase-3 (Homo sapiens) (UniProt P42574); assay: Activation of caspase 3 in DU145 cells assessed as hydrolysis of DEVD-pNA […] substrate; format: cell-based; conditions: DU-145
T3 sequence (whole entry): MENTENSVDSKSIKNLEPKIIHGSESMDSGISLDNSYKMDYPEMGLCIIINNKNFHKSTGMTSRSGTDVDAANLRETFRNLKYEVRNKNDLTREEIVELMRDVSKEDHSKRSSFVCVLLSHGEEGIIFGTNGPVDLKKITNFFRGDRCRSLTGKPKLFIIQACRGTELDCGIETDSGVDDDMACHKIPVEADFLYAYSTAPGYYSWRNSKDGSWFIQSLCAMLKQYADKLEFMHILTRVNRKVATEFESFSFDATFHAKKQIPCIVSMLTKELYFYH

[7] = Induction of apoptosis in JR8 cells after 72 hrs at 125 uM; format: functional, Homo sapiens
Caspase-3 (Homo sapiens) [8] = biological target: T3, Caspase-3 (Homo sapiens); assay: Activation of caspase 3 in HeLa cells assessed as hydrolysis of DEVD-pNA […] substrate; format: cell-based
HeLa [9] = assay: Cytotoxicity against HeLa cells after 72 hrs; format: cell-based; conditions: Homo sapiens
[10] = biological target: T2, Heat shock protein HSP90 (Homo sapiens); assay: Activity at Hsp90 in HeLa cells assessed as reduction in telomerase activity by TRAP assay relative to control; format: cell-based; parameters: scale not given: the % may be the effect or the level left
DU-145 [11] = assay: Induction of apoptosis in DU145 cells after 72 hrs at 62.5 uM; format: functional, Homo sapiens
HeLa [12] = assay: Apoptotic activity against HeLa cells after 72 hrs; format: functional, Homo sapiens
[13] = Cytotoxicity against human WI38 cells after 72 hrs; format: cell-based; conditions: wi-38, 72 h
[14] = Apoptotic activity against JR8 cells after 72 hrs; format: functional, Homo sapiens
DU-145 [15] = assay: Apoptotic activity against DU145 cells after 72 hrs; format: functional, Homo sapiens
DU-145 [16] = assay: Cytotoxicity against DU145 cells after 72 hrs; format: cell-based; conditions: Homo sapiens, DU-145, 72 h

Structure (SMILES) | IC50 [1] | Activity (Caspase-9 (Homo sapiens) [2]) | Activity (HeLa [3]) | Activity (Caspase-9 (Homo sapiens) [4]) | Activity [5] | Activity (Caspase-3 (Homo sapiens) [6]) | Activity [7] | Activity (Caspase-3 (Homo sapiens) [8]) | IC50 (HeLa [9]) | Activity [10] | Activity (DU-145 [11]) | Activity (HeLa [12]) | Activity [13] | Activity [14] | Activity (DU-145 [15]) | IC50 (DU-145 [16])
NC(=O)c1ncn([C@@H]2O[C@H](COP(=O)(O)O)[C@@H](O)[C@H]2O)c1N | 105 µM | Active | 27% | Active | 70% | Active | 20% | Active | 126 µM | 70% | 34% | 23% | Not Active | 13% | 28% | 59 µM
C=CCNC1=C2C[C@@H](C)C[C@H](OC)[C@H](O)[C@@H](C)/C=C(\C)[C@H](OC(N)=O)[C@@H](OC)/C=C\C=C(/C)C(=O)NC(=CC1=O)C2=O [TANESPIMYCIN] | 53.3 µM |  |  |  |  |  |  |  | 108 µM |  |  | 10.8% |  | 12% | 15.9% | 68.3 µM
